PMC5218480 (PLoS ONE, 2017)

System: MV-4-11 cells
Assay: Gene expression microarray analysis (Affymetrix PrimeView) and GSEA
Format: cell-based, human
Set-up: RFU PODN (11730768_x_at) / Fold change /veh PODN (11730768_x_at) / RFU LINC00158 (11744669_a_at) / Fold change /veh LINC00158 (11744669_a_at) / RFU DUSP10 (11751237_a_at) / Fold change /veh DUSP10 (11751237_a_at) / RFU ID3 (11757404_x_at) / Fold change /veh ID3 (11757404_x_at) / RFU PLEKHG5 (11737974_s_at) / Fold change /veh PLEKHG5 (11737974_s_at) / RFU LRRC4B (11730491_at) / Fold change /veh LRRC4B (11730491_at) / RFU GIMAP4 (11747438_a_at) / Fold change /veh GIMAP4 (11747438_a_at) / RFU KRT8 (11758183_x_at) / Fold change /veh KRT8 (11758183_x_at) / RFU CNN1 (11734310_a_at) / Fold change /veh CNN1 (11734310_a_at) / RFU VPS37D (11726825_at) / Fold change /veh VPS37D (11726825_at) / RFU C10orf10 (11716522_x_at) / Fold change /veh C10orf10 (11716522_x_at) / RFU KIR2DL2 /// KIR2DL4 /// KIR2DL5A /// KIR2DL5B /// KIR2DS1 /// KIR2DS2 /// KIR2DS3 /// KIR2DS4 /// KIR3DL3 /// KIR3DL3 /// KIR3DS1 (11738374_at) / Fold change /veh KIR2DL2 /// KIR2DL4 /// KIR2DL5A /// KIR2DL5B /// KIR2DS1 /// KIR2DS2 /// KIR2DS3 /// KIR2DS4 /// KIR3DL3 /// KIR3DL3 /// KIR3DS1 (11738374_at) / RFU C1QL1 (11718748_at) / Fold change /veh C1QL1 (11718748_at) / RFU TMPRSS4 (11747572_a_at) / Fold change /veh TMPRSS4 (11747572_a_at) / RFU HAMP (11756126_x_at) / Fold change /veh HAMP (11756126_x_at) / RFU RNFT2 (11725882_a_at) / Fold change /veh RNFT2 (11725882_a_at) / RFU NR4A2 (11747474_a_at) / Fold change /veh NR4A2 (11747474_a_at) / RFU ABCC12 (11746883_a_at) / Fold change /veh ABCC12 (11746883_a_at) / RFU TMEM136 (11760407_x_at) / Fold change /veh TMEM136 (11760407_x_at) / RFU CLDN22 /// WWC2 (11732394_at) / Fold change /veh CLDN22 /// WWC2 (11732394_at) / RFU HLA-DPB1 (11760878_x_at) / Fold change /veh HLA-DPB1 (11760878_x_at) / RFU SPINT1 (11716480_a_at) / Fold change /veh SPINT1 (11716480_a_at) / RFU GAP43 (11754022_s_at) / Fold change /veh GAP43 (11754022_s_at) / RFU A4GNT (11735810_at) / Fold change /veh A4GNT (11735810_at) / RFU PRB3 (11715151_x_at) / Fold change /veh PRB3 (11715151_x_at) / RFU TUBB4B (11761932_at) / Fold change /veh TUBB4B (11761932_at) / RFU CAPN14 (11732068_a_at) / Fold change /veh CAPN14 (11732068_a_at) / RFU TMCC2 (11721928_a_at) / Fold change /veh TMCC2 (11721928_a_at) / RFU IRGQ (11745062_a_at) / Fold change /veh IRGQ (11745062_a_at) / RFU FAM174B (11720279_a_at) / Fold change /veh FAM174B (11720279_a_at) / RFU TMPRSS4 (11748680_a_at) / Fold change /veh TMPRSS4 (11748680_a_at) / RFU FAM212B (11763350_a_at) / Fold change /veh FAM212B (11763350_a_at) / RFU PLEKHG5 (11743358_a_at) / Fold change /veh PLEKHG5 (11743358_a_at) / RFU ZSCAN30 (11745921_a_at) / Fold change /veh ZSCAN30 (11745921_a_at) / RFU CMKLR1 (11741424_a_at) / Fold change /veh CMKLR1 (11741424_a_at) / RFU LOC101060620 /// MAPK8IP1 (11723275_at) / Fold change /veh LOC101060620 /// MAPK8IP1 (11723275_at) / RFU SPTSSB (11747773_x_at) / Fold change /veh SPTSSB (11747773_x_at) / RFU PRSS12 (11739890_at) / Fold change /veh PRSS12 (11739890_at) / RFU BIN1 (11741810_x_at) / Fold change /veh BIN1 (11741810_x_at) / RFU WNT11 (11732464_a_at) / Fold change /veh WNT11 (11732464_a_at) / RFU C10orf10 (11716521_a_at) / Fold change /veh C10orf10 (11716521_a_at) / RFU C5orf56 (11738089_at) / Fold change /veh C5orf56 (11738089_at) / RFU CYB561 (11721691_x_at) / Fold change /veh CYB561 (11721691_x_at) / RFU ANKRD19P (11752326_a_at) / Fold change /veh ANKRD19P (11752326_a_at) / RFU OR2T12 /// OR2T33 /// OR2T8 (11738714_s_at) / Fold change /veh OR2T12 /// OR2T33 /// OR2T8 (11738714_s_at) / RFU VCAN (11748164_a_at) / Fold change /veh VCAN (11748164_a_at) / RFU JSRP1 (11732532_at) / Fold change /veh JSRP1 (11732532_at) / RFU KRTAP10-11 (11738290_x_at) / Fold change /veh KRTAP10-11 (11738290_x_at) / RFU MYO3A (11730013_a_at) / Fold change /veh MYO3A (11730013_a_at) / RFU EBF3 (11725865_a_at) / Fold change /veh EBF3 (11725865_a_at) / RFU CAMK2N1 (11719241_x_at) / Fold change /veh CAMK2N1 (11719241_x_at) / RFU C5orf56 (11738088_a_at) / Fold change /veh C5orf56 (11738088_a_at) / RFU OLFML3 (11715873_a_at) / Fold change /veh OLFML3 (11715873_a_at) / RFU LOC100653217 /// NTM (11731650_a_at) / Fold change /veh LOC100653217 /// NTM (11731650_a_at) / RFU MAPK11 (11762145_a_at) / Fold change /veh MAPK11 (11762145_a_at) / RFU FIZ1 (11724087_x_at) / Fold change /veh FIZ1 (11724087_x_at) / RFU OASL (11726364_x_at) / Fold change /veh OASL (11726364_x_at) / RFU SOX15 (11748057_x_at) / Fold change /veh SOX15 (11748057_x_at) / RFU CD79A (11719716_a_at) / Fold change /veh CD79A (11719716_a_at) / RFU HIST1H1D (11736915_at) / Fold change /veh HIST1H1D (11736915_at) / RFU CASKIN2 (11723855_a_at) / Fold change /veh CASKIN2 (11723855_a_at) / RFU LOC730098 (11760151_x_at) / Fold change /veh LOC730098 (11760151_x_at) / RFU OR4N2 (11742367_at) / Fold change /veh OR4N2 (11742367_at) / RFU PRRT2 (11749266_a_at) / Fold change /veh PRRT2 (11749266_a_at) / RFU SNX32 (11753110_a_at) / Fold change /veh SNX32 (11753110_a_at) / RFU CDHR5 (11726645_a_at) / Fold change /veh CDHR5 (11726645_a_at) / RFU RCAN1 (11760418_a_at) / Fold change /veh RCAN1 (11760418_a_at) / RFU FAM167A (11723789_a_at) / Fold change /veh FAM167A (11723789_a_at) / RFU FAM26E (11764081_at) / Fold change /veh FAM26E (11764081_at) / RFU ISYNA1 (11749810_s_at) / Fold change /veh ISYNA1 (11749810_s_at) / RFU ACY1 (11761880_at) / Fold change /veh ACY1 (11761880_at) / RFU 11764098_at / Fold change /veh 11764098_at / RFU SAMD14 (11745864_x_at) / Fold change /veh SAMD14 (11745864_x_at) / RFU NPB (11741838_a_at) / Fold change /veh NPB (11741838_a_at) / RFU TMPRSS6 (11731388_a_at) / Fold change /veh TMPRSS6 (11731388_a_at) / RFU KRTAP10-2 (11738614_at) / Fold change /veh KRTAP10-2 (11738614_at) / RFU ARHGAP8 /// PRR5-ARHGAP8 (11727945_x_at) / Fold change /veh ARHGAP8 /// PRR5-ARHGAP8 (11727945_x_at) / RFU KRTAP5-7 /// NADSYN1 (11734609_at) / Fold change /veh KRTAP5-7 /// NADSYN1 (11734609_at) / RFU RASL12 (11751679_a_at) / Fold change /veh RASL12 (11751679_a_at) / RFU CDKN2B (11736163_a_at) / Fold change /veh CDKN2B (11736163_a_at) / RFU PRF1 (11729649_at) / Fold change /veh PRF1 (11729649_at) / RFU, ZNF638 /// ZNF638-IT1 / Fold change vs veh, ZNF638 /// ZNF638-IT1 / RFU, PANK3 / Fold change vs veh, PANK3 / RFU, SH3YL1 / Fold change vs veh, SH3YL1 / RFU, ZEB2 / Fold change vs veh, ZEB2 / RFU, NRIP1 / Fold change vs veh, NRIP1 / RFU, PTTG1IP / Fold change vs veh, PTTG1IP / RFU, CAPN2 / Fold change vs veh, CAPN2 / RFU, MED14 / Fold change vs veh, MED14 / RFU, SNORA58 / Fold change vs veh, SNORA58 / RFU, C1orf63 / Fold change vs veh, C1orf63 / RFU, LRRFIP1 / Fold change vs veh, LRRFIP1 / RFU, NDUFAF7 / Fold change vs veh, NDUFAF7 / RFU, SLC12A2 / Fold change vs veh, SLC12A2 / RFU, IBTK / Fold change vs veh, IBTK / RFU, ESF1 / Fold change vs veh, ESF1 / Fold change vs veh, TMEM50B / RFU, TAOK1 / Fold change vs veh, TAOK1 / RFU, ACBD3 / Fold change vs veh, ACBD3 / RFU, TMA16 / Fold change vs veh, TMA16 / RFU, RWDD3 / Fold change vs veh, RWDD3 / RFU, BCAT1 / Fold change vs veh, BCAT1 / RFU, EDEM3 / Fold change vs veh, EDEM3 / RFU, TMEM33 / Fold change vs veh, TMEM33 / RFU, WDR75 / Fold change vs veh, WDR75 / RFU, AHCTF1 / Fold change vs veh, AHCTF1 / RFU, TFRC / Fold change vs veh, TFRC / RFU, ZDHHC17 / Fold change vs veh, ZDHHC17 / RFU, NOM1 / Fold change vs veh, NOM1 / RFU, ARL8B / Fold change vs veh, ARL8B / RFU, ZBTB11 / Fold change vs veh, ZBTB11 / RFU, TAMM41 / Fold change vs veh, TAMM41 / RFU, KIAA1704 /// LOC100996395 / Fold change vs veh, KIAA1704 /// LOC100996395 / RFU, ING1 / Fold change vs veh, ING1 / RFU, TRMT61B / Fold change vs veh, TRMT61B / RFU, FUBP3 / Fold change vs veh, FUBP3 / RFU, TP53 / Fold change vs veh, TP53 / RFU, TNKS2 / Fold change vs veh, TNKS2 / RFU, ZFP14 / Fold change vs veh, ZFP14 / RFU, ACTR2 / Fold change vs veh, ACTR2 / RFU, PPP3R1 / Fold change vs veh, PPP3R1 / RFU, PIK3R1 / Fold change vs veh, PIK3R1 / RFU, HNRNPA1 / Fold change vs veh, HNRNPA1 / RFU, RNF170 / Fold change vs veh, RNF170 / RFU, ZNF28 / Fold change vs veh, ZNF28 / RFU, RNGTT / Fold change vs veh, RNGTT / RFU, OGT / Fold change vs veh, OGT / RFU, BRD1 / Fold change vs veh, BRD1 / RFU, MARS / Fold change vs veh, MARS / RFU, ZNF655 / Fold change vs veh, ZNF655 / RFU, FAHD1 / Fold change vs veh, FAHD1 / RFU, BDP1 / Fold change vs veh, BDP1 / RFU, LRRCC1 / Fold change vs veh, LRRCC1 / RFU, ARID1A / Fold change vs veh, ARID1A / RFU, ZNF146 / Fold change vs veh, ZNF146 / RFU, ZNF330 / Fold change vs veh, ZNF330 / RFU, GPN3 / Fold change vs veh, GPN3 / RFU, C9orf123 / Fold change vs veh, C9orf123 / RFU, N4BP2L2 / Fold change vs veh, N4BP2L2 / RFU, ARFIP1 / Fold change vs veh, ARFIP1 / RFU, FAM179B / Fold change vs veh, FAM179B / RFU, BCL10 / Fold change vs veh, BCL10 / RFU, UHRF1BP1L / Fold change vs veh, UHRF1BP1L / RFU, BET1 / Fold change vs veh, BET1 / RFU, CNOT2 / Fold change vs veh, CNOT2 / RFU, ZNF268 / Fold change vs veh, ZNF268 / Fold change vs veh, ZNF507 / RFU, DGCR2 / Fold change vs veh, DGCR2 / RFU, WDSUB1 / Fold change vs veh, WDSUB1 / Fold change vs veh, HSP90B1 /// MIR3652 / RFU, ADSS / Fold change vs veh, ADSS / RFU, GK / Fold change vs veh, GK / RFU, ZNF148 / Fold change vs veh, ZNF148 / RFU, TAF9 / Fold change vs veh, TAF9 / RFU, SLC1A5 / Fold change vs veh, SLC1A5 / RFU, SLMO2 / Fold change vs veh, SLMO2 / RFU, ABCC4 / Fold change vs veh, ABCC4 / RFU, LOC101060439 /// RAP1B / Fold change vs veh, LOC101060439 /// RAP1B / RFU, RFX7 / Fold change vs veh, RFX7 / RFU, GTPBP10 / Fold change vs veh, GTPBP10 / RFU, CNEP1R1 / Fold change vs veh, CNEP1R1 / RFU, BIVM-ERCC5 /// ERCC5 / Fold change vs veh, BIVM-ERCC5 /// ERCC5 / RFU, ILF3 / Fold change vs veh, ILF3 / RFU 11762660_at / Fold change /veh 11762660_at / RFU VCAN (11757783_s_at) / Fold change /veh VCAN (11757783_s_at) / RFU DDX43 (11728927_at) / Fold change /veh DDX43 (11728927_at) / RFU KRT8 (11758188_x_at) / Fold change /veh KRT8 (11758188_x_at) / RFU NKD1 (11759106_at) / Fold change /veh NKD1 (11759106_at) / RFU SRD5A1 (11742802_a_at) / Fold change /veh SRD5A1 (11742802_a_at) / RFU TPSAB1 /// TPSB2 (11721975_s_at) / Fold change /veh TPSAB1 /// TPSB2 (11721975_s_at) / RFU GSTM3 (11746129_a_at) / Fold change /veh GSTM3 (11746129_a_at) / RFU IL23R (11737362_x_at) / Fold change /veh IL23R (11737362_x_at) / RFU TMEM51 (11727254_a_at) / Fold change /veh TMEM51 (11727254_a_at) / RFU PIWIL2 (11732686_x_at) / Fold change /veh PIWIL2 (11732686_x_at) / RFU ORM1 (11744905_x_at) / Fold change /veh ORM1 (11744905_x_at) / RFU CCDC152 (11743942_at) / Fold change /veh CCDC152 (11743942_at) / RFU ECM1 (11717891_a_at) / Fold change /veh ECM1 (11717891_a_at) / RFU IL23R (11748794_a_at) / Fold change /veh IL23R (11748794_a_at) / RFU TNFAIP8L3 (11732012_x_at) / Fold change /veh TNFAIP8L3 (11732012_x_at) / RFU MBOAT4 (11741988_at) / Fold change /veh MBOAT4 (11741988_at) / RFU 11764193_at / Fold change /veh 11764193_at / RFU TMEM53 (11763286_at) / Fold change /veh TMEM53 (11763286_at) / RFU MAGEB2 (11727129_at) / Fold change /veh MAGEB2 (11727129_at) / RFU TMEM200A (11744735_a_at) / Fold change /veh TMEM200A (11744735_a_at) / RFU CCDC152 (11751479_a_at) / Fold change /veh CCDC152 (11751479_a_at) / RFU FAM211A (11726209_a_at) / Fold change /veh FAM211A (11726209_a_at) / RFU RGS16 (11746705_a_at) / Fold change /veh RGS16 (11746705_a_at) / RFU VCAN (11755009_s_at) / Fold change /veh VCAN (11755009_s_at) / RFU RHOB (11743442_s_at) / Fold change /veh RHOB (11743442_s_at) / RFU RGS16 (11720943_a_at) / Fold change /veh RGS16 (11720943_a_at) / RFU RGS16 (11720944_at) / Fold change /veh RGS16 (11720944_at) / RFU, VPS4B / Fold change vs veh, VPS4B / RFU, CREB1 / Fold change vs veh, CREB1 / RFU, DNAJC13 / Fold change vs veh, DNAJC13 / RFU, GNAQ / Fold change vs veh, GNAQ / RFU, CDK5R1 / Fold change vs veh, CDK5R1 / RFU, ZRANB3 / Fold change vs veh, ZRANB3 / RFU, CUL4A / Fold change vs veh, CUL4A / RFU, CCNY / Fold change vs veh, CCNY / RFU, UFL1 / Fold change vs veh, UFL1 / RFU, COG3 / Fold change vs veh, COG3 / RFU, DIAPH2 / Fold change vs veh, DIAPH2 / RFU, SKA2 / Fold change vs veh, SKA2 / RFU, AFF3 / Fold change vs veh, AFF3 / RFU, LMF1 / Fold change vs veh, LMF1 / RFU, IPO11 / Fold change vs veh, IPO11 / RFU, DFFB / Fold change vs veh, DFFB / RFU, FOXP1 / Fold change vs veh, FOXP1 / RFU, CARD8 / Fold change vs veh, CARD8 / RFU, STRN3 / Fold change vs veh, STRN3 / RFU, ADK / Fold change vs veh, ADK / RFU, RASSF2 / Fold change vs veh, RASSF2 / RFU, WIPF1 / Fold change vs veh, WIPF1 / RFU, LARP1B / Fold change vs veh, LARP1B / RFU, RASA1 / Fold change vs veh, RASA1 / RFU, RB1 / Fold change vs veh, RB1 / RFU, PPFIA1 / Fold change vs veh, PPFIA1 / RFU, MAT2A / Fold change vs veh, MAT2A / RFU, CCT5 / Fold change vs veh, CCT5 / RFU, WDR92 / Fold change vs veh, WDR92 / RFU, CUX1 / Fold change vs veh, CUX1 / RFU, TTC7A / Fold change vs veh, TTC7A / RFU, TMEM135 / Fold change vs veh, TMEM135 / RFU, DEPTOR / Fold change vs veh, DEPTOR / RFU, CPM / Fold change vs veh, CPM / RFU, DNAJB6 / Fold change vs veh, DNAJB6 / RFU, CACNA2D3 / Fold change vs veh, CACNA2D3 / RFU, DTX4 / Fold change vs veh, DTX4 / RFU, TFCP2 / Fold change vs veh, TFCP2 / RFU, GMCL1 /// GMCL1P1 / Fold change vs veh, GMCL1 /// GMCL1P1 / RFU, AEBP2 / Fold change vs veh, AEBP2 / RFU, SNHG1 /// SNORD22 /// SNORD25 /// SNORD26 /// SNORD27 /// SNORD28 /// SNORD29 /// SNORD31 / Fold change vs veh, SNHG1 /// SNORD22 /// SNORD25 /// SNORD26 /// SNORD27 /// SNORD28 /// SNORD29 /// SNORD31 / Fold change (Aza/veh), C12orf56 (ProbeSet 11735607_a_at) / Fold change (ACY-1035/veh), C12orf56 (ProbeSet 11735607_a_at) / Fold change (Aza/veh), FGFR1OP (ProbeSet 11751329_s_at) / Fold change (ACY-1035/veh), FGFR1OP (ProbeSet 11751329_s_at) / Fold change (Aza/veh), VPS36 (ProbeSet 11739960_a_at) / Fold change (ACY-1035/veh), VPS36 (ProbeSet 11739960_a_at) / RFU SYPL1 (11715823_x_at) / Fold change /veh SYPL1 (11715823_x_at) / RFU IGFBP7 (11715501_s_at) / Fold change /veh IGFBP7 (11715501_s_at) / RFU REEP3 (11722064_at) / Fold change /veh REEP3 (11722064_at) / RFU IGLL1 (11728026_x_at) / Fold change /veh IGLL1 (11728026_x_at): dose or concentration left out as unconfirmed
Conditions: ProbeSet 11750457_a_at; LIST B

## Nc1ncn([C@@H]2O[C@H](CO)[C@@H](O)[C@H]2O)c(=O)n1 [azacitidine]
  Fold change vs veh, GTPBP10: 0.84
